The record followed here is patent US20240059729A1, “MULTIFUNCTIONAL CYCLIC DINUCLEOTIDE AND USE THEREOF” (TYLIGAND BIOSCIENCE (SHANGHAI) LIMITED, priority 2020, published 2024).

In general, pIC50 refers to the negative decadic logarithm of the IC50, by convention in mol/L. Low values mean a high IC50, high ones a low IC50.

For experiment [1], the system named is CT26 cells. Put plainly: Inhibition of proliferation of CT26 cells (CellTiter-Glo). The experiment is classed as cell-based, mouse. To be noted: for pIC50: 120 hours, CellTiter-Glo. A general note: In ATP-based viability assays light output follows the ATP content of the culture.
The subject of experiment [2] is CT26 cells. The experiment in a line: Anti-tumor activity in transplantation tumor model of CT26 nude mouse. The experiment is classed as in vivo, BALB/c nude mice. To be noted: for Tumor growth inhibition rate in T cell immunodeficient nude mice: Day 9 post-dosing, 50 μg/mouse (2.5 mg/kg) intratumorally, Day 0 and Day 4; for Tumor growth inhibition in immuno-competent mice versus nude mice (in words): FIG. 2D. The method, then:
BALB/c nude mice of 6-8 weeks (purchased from Shanghai Ling Chang Biotech Co., Ltd.) were inoculated with 5×10^5 CT26 cells (supplied by Taicang Zexin Biotechnology Co., Ltd., ATCC #CRL-2638) subcutaneously on the right back dorsal, respectively, and the inoculation volume was 0.1 mL. When tumors grew to an average volume of 100 mm^3, they were randomized according to tumor size and mouse body weight and dosed. The day of the first dose was Day 0. Two doses were administered on Day 0 and Day 4, with 50 μg of compound/mouse (i.e., 2.5 mg/kg) injected intratumorally right side, with the same volume of PBS (Hyclone, Cat #SH30258.01) as a control. The control mice were sacrificed 9 days, the ADU-S100 treated mice were sacrificed 14 days, and Example 10 treated mice were sacrificed 16 days, after dosing, respectively. During the experiment, tumor volumes and the body weights were measured 3 times per week, and the tumor volume was calculated as V=D×d×d/2 (Ibid).

pIC50: −log10 of the molar value. Counter-ions that a name gives are not always drawn. Bounds are passed on as bounds.

On to `Nc1nc2c(ncn2[C@@H]2O[C@@H]3CO[P@@](=O)(S)OC4C(F)[C@H](n5cnc6c(N)nc(Cl)nc65)O[C@@H]4CO[P@@](=O)(S)OC3C2O)c(=O)[nH]1` (stereo partly drawn) [Example 17, diammonium salt], for which the pIC50 in experiment [1] (Mus musculus) is 5.00 to 6.00.

With `Nc1nc2c(ncn2[C@@H]2O[C@@H]3CO[P@@](=O)(S)OC4C(F)[C@H](n5cnc6c(N)nc(Cl)nc65)O[C@@H]4CO[P@@](=O)(S)OC2C3O)c(=O)[nH]1` (stereo partly drawn) [Example 10, (2′,3′)-cyclo-(Rp,Rp)-[2′-O-phosphorothioate-diester-guanosine]-[3′-O-phosphorothioate-diester-2-chloro-2′-deoxy-2′-fluoro-beta-adenosine] diammonium salt], in experiment [2], the “Tumor growth inhibition rate in T cell immunodeficient nude mice” value came out at 94.4% and the “Tumor growth inhibition in immuno-competent mice versus nude mice (in words)” value is “better tumor growth inhibition in immuno-competent mice than in nude mice”. The “Inhibitory potency on in vitro growth of CT26 tumor cells (in words)” value in experiment [1] was “particularly significant inhibitory potency”. Further, the pIC50 in experiment [1] (Mus musculus) was greater than 6.00.

As for `Nc1ncnc2c1ncn2[C@@H]1O[C@@H]2COP(=O)([S-])O[C@@H]3[C@H](O)[C@@H](COP([O-])(=S)O[C@H]2[C@H]1O)O[C@H]3n1cnc2c(N)ncnc21.[Na+].[Na+]` (stereo partly drawn) [ADU-S100, reference compound], in experiment [2], the “Tumor growth inhibition rate in T cell immunodeficient nude mice” value came out at 61.4% and the “Tumor growth inhibition in immuno-competent mice versus nude mice (in words)” value is given as “better tumor growth inhibition in immuno-competent mice than in nude mice”. In experiment [1], the “Inhibitory potency on in vitro growth of CT26 tumor cells (in words)” value is listed as “no significant tumor cell inhibitory potency” and the pIC50 is less than 5.00.
